Assay results reported in ChEMBL document CHEMBL1141262, “Cytotoxic diterpenoids from the hybrid soft coral Sinularia maxima x Sinularia polydactyla” (2007).

Key:
Format in all cases: functional
DU-145 = test: Cytotoxicity against human DU145 cells after 72 hrs; settings: for CC50: read-out: LC50 (the source's name)
LNCaP = test: Cytotoxicity against human LNcaP cells after 72 hrs; settings: for CC50: read-out: LC50 (the source's name)
[1] = Cytotoxicity against human IGROV cells after 72 hrs; settings: for CC50: read-out: LC50 (the source's name)
[2] = Cytotoxicity against ET-743 resistant human IGROV cells after 72 hrs
SK-BR-3 = test: Cytotoxicity against human SK-BR3 cells after 72 hrs; settings: for CC50: read-out: LC50 (the source's name)
A549 = test: Cytotoxicity against human A549 cells after 72 hrs
K562 = test: Cytotoxicity against human K562 cells after 72 hrs; settings: for CC50: read-out: LC50 (the source's name)
PANC-1 = test: Cytotoxicity against human PANC1 cells after 72 hrs; settings: for CC50: read-out: LC50 (the source's name)
HT-29 = test: Cytotoxicity against human HT29 cells after 72 hrs
LoVo [3] = test: Cytotoxicity against human LoVo cells after 72 hrs; settings: for CC50: read-out: LC50 (the source's name)
LoVo [4] = test: Cytotoxicity against doxorubicin resistant human LoVo cells after 72 hrs
HeLa [5] = test: Cytotoxicity against human HeLa cells after 72 hrs; settings: for CC50: read-out: LC50 (the source's name)
HeLa [6] = test: Cytotoxicity against aplidine resistant human HeLa cells after 72 hrs; settings: for CC50: read-out: LC50 (the source's name)
SK-MEL-28 = test: Cytotoxicity against human SK-MEL-28 cells after 72 hrs

Work on `C=C(C)[C@H]1C/C2=C(\C(=O)OC)[C@@H]3O[C@@](C)(CC3=O)C[C@@H]3C=C(C(=O)O3)[C@H](C1)O2` yielded a GI50 (DU-145; Homo sapiens, DU-145, 72 h) of 4.35 µM, a TGI (DU-145; Homo sapiens, DU-145, 72 h) of 8.32 µM and a CC50 (DU-145; Homo sapiens, DU-145, 72 h) of 15.9 µM. For the same compound, the GI50 (LNCaP) was 5.05 µM, the TGI (LNCaP) was 8.96 µM and the CC50 (LNCaP) was 15.9 µM. The GI50 ([1]; Homo sapiens, IGROV, 72 h) was 4.05 µM, the TGI ([1]; Homo sapiens, IGROV, 72 h) was 7.68 µM and the CC50 ([1]; Homo sapiens, IGROV, 72 h) was 14.6 µM. For the same compound, the GI50 ([2]; Homo sapiens, IGROV, 72 h) was 4.56 µM, the LC50 (50% lethal concentration) ([2]; Homo sapiens, IGROV, 72 h) was 16.5 µM and the TGI ([2]; Homo sapiens, IGROV, 72 h) was 8.68 µM. For the same compound, the GI50 (SK-BR-3; Homo sapiens, SK-BR-3, 72 h) was 6.4 µM, the TGI (SK-BR-3; Homo sapiens, SK-BR-3, 72 h) was 11.4 µM and the CC50 (SK-BR-3; Homo sapiens, SK-BR-3, 72 h) was 20.3 µM. It also gave a GI50 (A549; Homo sapiens, A549, 72 h) of 5.56 µM, an LC50 (A549; Homo sapiens, A549, 72 h) of 25.6 µM and a TGI (A549; Homo sapiens, A549, 72 h) of 11.9 µM. For the same compound, the GI50 (K562; Homo sapiens, K562, 72 h) was 5.58 µM, the TGI (K562; Homo sapiens, K562, 72 h) was 8.89 µM and the CC50 (K562; Homo sapiens, K562, 72 h) was 14.2 µM. It also gave a GI50 (PANC-1; Homo sapiens, PANC-1, 72 h) of 3.64 µM, a TGI (PANC-1; Homo sapiens, PANC-1, 72 h) of 7.15 µM and a CC50 (PANC-1; Homo sapiens, PANC-1, 72 h) of 14.1 µM. For the same compound, the GI50 (HT-29; Homo sapiens, HT-29, 72 h) was 6.48 µM, the LC50 (concentration killing 50% of cells) (HT-29; Homo sapiens, HT-29, 72 h) was over 25.6 µM and the TGI (HT-29; Homo sapiens, HT-29, 72 h) was 15.4 µM. It also gave a GI50 (LoVo [3]; Homo sapiens, LoVo, 72 h) of 3.41 µM, a TGI (LoVo [3]; Homo sapiens, LoVo, 72 h) of 6.61 µM and a CC50 (LoVo [3]; Homo sapiens, LoVo, 72 h) of 12.8 µM. For the same compound, the GI50 (LoVo [4]; Homo sapiens, LoVo, 72 h) was 5.66 µM, the LC50 (LoVo [4]; Homo sapiens, LoVo, 72 h) was over 25.6 µM and the TGI (LoVo [4]; Homo sapiens, LoVo, 72 h) was 16.5 µM. The GI50 (HeLa [5]; Homo sapiens, HeLa, 72 h) was 4.38 µM, the TGI (HeLa [5]; Homo sapiens, HeLa, 72 h) was 8.04 µM and the CC50 (HeLa [5]; Homo sapiens, HeLa, 72 h) was 14.8 µM. For the same compound, the GI50 (HeLa [6]; Homo sapiens, HeLa, 72 h) was 3.77 µM, the TGI (HeLa [6]; Homo sapiens, HeLa, 72 h) was 7.5 µM and the CC50 (HeLa [6]; Homo sapiens, HeLa, 72 h) was 15 µM. It also gave a GI50 (SK-MEL-28; Homo sapiens, SK-MEL-28, 72 h) of 4.25 µM, an LC50 (SK-MEL-28; Homo sapiens, SK-MEL-28, 72 h) of 13.6 µM and a TGI (SK-MEL-28; Homo sapiens, SK-MEL-28, 72 h) of 7.61 µM.
Compound `C=C(C)[C@H]1C/C2=C(\C(=O)OC)C(OC(C)CC)C(=O)/C=C(\C)C[C@@H]3C=C(C(=O)O3)[C@H](C1)O2` (stereo in doubt; 2) has a GI50 (DU-145) of 3.98 µM, a TGI (DU-145) of 7.56 µM and a CC50 (DU-145) of 14.4 µM. It also gave a GI50 [1] of 3.4 µM, a TGI [1] of 6.91 µM and a CC50 [1] of 14.1 µM. For the same compound, the GI50 [2] was 3.96 µM, the LC50 (50% lethal concentration) [2] was 15.8 µM and the TGI [2] was 7.92 µM. It also gave a GI50 (SK-BR-3) of 0.58 µM, a TGI (SK-BR-3) of 1.43 µM and a GI50 (A549) of 5.85 µM. For the same compound, the LC50 (A549) was over 22.5 µM, the TGI (A549) was 12.3 µM and the GI50 (K562) was 5.26 µM. It also gave a TGI (K562) of 9.45 µM, a CC50 (K562) of 17 µM and a GI50 (PANC-1) of 2.9 µM. For the same compound, the TGI (PANC-1) was 6.91 µM, the CC50 (PANC-1) was 16.5 µM and the GI50 (HT-29) was 4.93 µM. For the same compound, the LC50 (concentration killing 50% of cells) (HT-29) was 18.5 µM, the TGI (HT-29) was 9.54 µM and the GI50 (LoVo [3]) was 3.46 µM. For the same compound, the TGI (LoVo [3]) was 7.49 µM, the CC50 (LoVo [3]) was 16.2 µM and the GI50 (LoVo [4]) was 1.87 µM. The LC50 (LoVo [4]) was 11.9 µM, the TGI (LoVo [4]) was 4.95 µM and the GI50 (HeLa [5]) was 3.33 µM. It also gave a TGI (HeLa [5]) of 7.29 µM, a CC50 (HeLa [5]) of 16 µM and a GI50 (HeLa [6]) of 3.17 µM. For the same compound, the TGI (HeLa [6]) was 8.5 µM, the CC50 (HeLa [6]) was 22.5 µM and the GI50 (SK-MEL-28) was 3.13 µM. The LC50 (SK-MEL-28) was 13.5 µM and the TGI (SK-MEL-28) was 6.5 µM.
`C=C(C)[C@H]1C/C2=C(\C(=O)OC)C(OC(C)CC)C(=O)/C=C(\C)C[C@@H]3C=C(C(=O)O3)[C@H](C1)O2` (stereo in doubt; 3) showed a GI50 (DU-145) of 1.95 µM, a TGI (DU-145; Homo sapiens, DU-145, 72 h) of 5.31 µM and a CC50 (DU-145; Homo sapiens, DU-145, 72 h) of 13.5 µM. For the same compound, the GI50 (LNCaP) was 1.69 µM, the TGI (LNCaP) was 5.17 µM and the CC50 (LNCaP) was 14.3 µM. The GI50 [1] was 0.52 µM, the TGI [1] was 1.1 µM and the CC50 [1] was 3.3 µM. For the same compound, the GI50 [2] was 1.03 µM, the TGI [2] was 3.64 µM and the LC50 (50% lethal concentration) ([2]; Homo sapiens, IGROV, 72 h) was 20.4 µM. The GI50 (SK-BR-3) was 0.039 µM, the TGI (SK-BR-3) was 0.28 µM and the CC50 (SK-BR-3; Homo sapiens, SK-BR-3, 72 h) was over 22.5 µM. The GI50 (A549) was 1.32 µM, the TGI (A549) was 4.59 µM and the LC50 (A549; Homo sapiens, A549, 72 h) was 16.3 µM. For the same compound, the GI50 (K562) was 1.21 µM, the TGI (K562) was 2.47 µM and the CC50 (K562; Homo sapiens, K562, 72 h) was 10.6 µM. For the same compound, the GI50 (PANC-1) was 0.58 µM, the TGI (PANC-1) was 1.57 µM and the CC50 (PANC-1) was 7.4 µM. For the same compound, the GI50 (HT-29) was 1.47 µM, the TGI (HT-29) was 4.14 µM and the LC50 (concentration killing 50% of cells) (HT-29; Homo sapiens, HT-29, 72 h) was 11.1 µM. It also gave a GI50 (LoVo [3]) of 0.51 µM, a TGI (LoVo [3]) of 1.16 µM and a CC50 (LoVo [3]) of 3.8 µM. For the same compound, the GI50 (LoVo [4]) was 0.75 µM, the LC50 (LoVo [4]; Homo sapiens, LoVo, 72 h) was 13.8 µM and the TGI (LoVo [4]; Homo sapiens, LoVo, 72 h) was 2.72 µM. It also gave a GI50 (HeLa [5]) of 0.48 µM, a TGI (HeLa [5]) of 0.93 µM and a CC50 (HeLa [5]) of 1.8 µM. The GI50 (HeLa [6]) was 0.56 µM, the TGI (HeLa [6]) was 1.31 µM and the CC50 (HeLa [6]) was 5.26 µM. For the same compound, the GI50 (SK-MEL-28) was 0.54 µM, the LC50 (SK-MEL-28) was 2.13 µM and the TGI (SK-MEL-28) was 1.08 µM.
